pEC50: −log10 of the molar value.
How the values were obtained:
[1] = tested on: hepatitis C virus genotype 1A; details: Hu7 RNA replicon assay; cited from earlier work
[2] = tested on: hepatitis C virus genotype 1B; details: Hu7 RNA replicon assay; cited from earlier work

melting point	Structure (SMILES)	pEC50 [1]	pEC50 [2]
114 to 116 °C	O=c1ccn([C@H]2[C@H](O)[C@H](O)[C@@H](CO)C23CC3)c(=O)[nH]1		
	Nc1ncnc2c1ncn2[C@H]1[C@H](O)[C@H](O)[C@@H](CO)C12CC2 [cyclopropy-spirocarbocyclic adenosine, (4R,5S,6R,7R)-4-(6-amino-9H-pur-9-yl)-7-(hydroxymethyl)spiro[2.4]heptane-5,6 diol]	6.56	6.43
